Measured values reported in ChEMBL document CHEMBL5537113, “Discovery of 1,2-diaryl-3-oxopyrazolidin-4-carboxamides as a new class of MurA enzyme inhibitors and characterization of their antibacterial activity” (Eur J Med Chem, 2023).

Tests used:
Bifidobacterium breve [1] = assay: Antibacterial activity against Bifidobacterium breve HM1120 assessed as reduction in microbial growth incubated for 48 hrs by broth microdilution method; type: functional
Bacteroides fragilis [2] = assay: Antibacterial activity against Bacteroides fragilis HM 20 assessed as reduction in microbial growth incubated for 48 hrs by broth microdilution method; type: functional
Bifidobacterium longum = assay: Antibacterial activity against Bifidobacterium longum HM 846 assessed as reduction in microbial growth incubated for 48 hrs by broth microdilution method; type: functional
Clostridioides difficile [3] = assay: Bactericidal activity against Clostridioides difficile NR-32904 assessed as reduction in microbial growth by broth microdilution method; type: functional
Clostridioides difficile [4] = assay: Bactericidal activity against Clostridioides difficile NR-49278 assessed as reduction in microbial growth by broth microdilution method; type: functional
Bifidobacterium breve [5] = assay: Antibacterial activity against Bifidobacterium breve HM 412 assessed as reduction in microbial growth incubated for 48 hrs by broth microdilution method; type: functional
Lactobacillus crispatus = assay: Antibacterial activity against Lactobacillus crispatus HM 420 assessed as reduction in microbial growth incubated for 48 hrs by broth microdilution method; type: functional
Staphylococcus aureus [6] = assay: Antibacterial activity against methicillin resistant Staphylococcus aureus USA300 assessed as reduction in microbial growth by CLSI based broth microdilution method; type: functional
Clostridioides difficile [7] = assay: Antibacterial activity against Clostridioides difficile NR-49288 assessed as reduction in microbial growth incubated for 48 hrs by broth microdilution method; type: functional
Clostridioides difficile [8] = assay: Bactericidal activity against Clostridioides difficile ATCC BAA1870 assessed as reduction in microbial growth by broth microdilution method; type: functional
[9] = biological target: UDP-N-acetylglucosamine 1-carboxyvinyltransferase (Escherichia coli K-12, UniProt P0A749); assay: Inhibition of Escherichia coli K12 His-tagged MurA expressed in Escherichia coli BL21 cells using UNAG as substrate pre incubated for 15 mins followed by substrate addition and measured after 15 mins by microplate reader analysis
Sequence of UDP-N-acetylglucosamine 1-carboxyvinyltransferase (P0A749 whole entry): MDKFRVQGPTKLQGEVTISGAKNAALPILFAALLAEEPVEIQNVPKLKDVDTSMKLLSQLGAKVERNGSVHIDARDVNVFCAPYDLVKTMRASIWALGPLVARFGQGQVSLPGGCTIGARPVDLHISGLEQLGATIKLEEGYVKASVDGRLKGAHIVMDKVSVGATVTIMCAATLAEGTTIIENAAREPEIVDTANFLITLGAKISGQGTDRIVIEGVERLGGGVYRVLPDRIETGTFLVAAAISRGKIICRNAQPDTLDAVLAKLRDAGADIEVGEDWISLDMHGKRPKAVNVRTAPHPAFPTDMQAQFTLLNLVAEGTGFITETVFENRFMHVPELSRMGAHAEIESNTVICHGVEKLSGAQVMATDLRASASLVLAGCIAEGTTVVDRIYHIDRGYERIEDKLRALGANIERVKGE

Bacteroides fragilis [10] = assay: Antibacterial activity against Bacteroides fragilis HM 718 assessed as reduction in microbial growth incubated for 48 hrs by broth microdilution method; type: functional
[11] = test system: Bifidobacterium angulatum; assay: Antibacterial activity against Bifidobacterium angulatum HM 1189 assessed as reduction in microbial growth incubated for 48 hrs by broth microdilution method; type: functional
Clostridioides difficile [12] = assay: Selectivity ratio of MBC for antibacterial activity against Clostridioides difficile NR-49284 to MIC for antibacterial activity against Clostridioides difficile NR-49284; type: functional
[13] = biological target: UDP-N-acetylglucosamine 1-carboxyvinyltransferase (Escherichia coli K-12) (UniProt P0A749); assay: Inhibition of Escherichia coli K12 His-tagged MurA expressed in Escherichia coli BL21 cells at 50 uM using UNAG as substrate pre incubated for 15 mins followed by substrate addition and measured after 15 mins by microplate reader analysis relative to control; conditions: time 30.0 min
Sequence of UDP-N-acetylglucosamine 1-carboxyvinyltransferase (Escherichia coli K-12) (P0A749 whole entry): as above

Clostridioides difficile [14] = assay: Antibacterial activity against Clostridioides difficile NR-32903 assessed as reduction in microbial growth incubated for 48 hrs by broth microdilution method; type: functional
Clostridioides difficile [15] = assay: Antibacterial activity against Clostridioides difficile NR-49287 assessed as reduction in microbial growth incubated for 48 hrs by broth microdilution method; type: functional
Clostridioides difficile [16] = assay: Antibacterial activity against Clostridioides difficile NR-49283 assessed as reduction in microbial growth incubated for 48 hrs by broth microdilution method; type: functional
[17] = Stability of compound in Staphylococcus aureus Newman cell lysate at 10 uM incubated for 24 hrs at 37 degC by UHPLC-MS/MS analysis; type: ADME, subcellular
Clostridioides difficile [18] = assay: Antibacterial activity against Clostridioides difficile NR-49282 assessed as reduction in microbial growth incubated for 48 hrs by broth microdilution method; type: functional
Clostridioides difficile [19] = assay: Bactericidal activity against Clostridioides difficile NR-32895 assessed as reduction in microbial growth by broth microdilution method; type: functional
Clostridioides difficile [20] = assay: Antibacterial activity against Clostridioides difficile HM-88 assessed as reduction in microbial growth incubated for 48 hrs by broth microdilution method; type: functional
Clostridioides difficile [21] = assay: Antibacterial activity against Clostridioides difficile NR-49284 assessed as reduction in microbial growth incubated for 48 hrs by broth microdilution method; type: functional
Staphylococcus aureus [22] = assay: Antibacterial activity against Staphylococcus aureus Newman D2C NCTC 10833 assessed as reduction in microbial growth incubated for 16 hrs by serial dilution method; type: functional
Escherichia coli = assay: Antibacterial activity against Escherichia coli harboring tolC deletion mutant assessed as reduction in microbial growth incubated for 16 hrs by serial dilution method; type: functional
Bacteroides fragilis [23] = assay: Antibacterial activity against Bacteroides fragilis HM 719 assessed as reduction in microbial growth incubated for 48 hrs by broth microdilution method; type: functional
Clostridioides difficile [24] = assay: Antibacterial activity against Clostridioides difficile NR-49291 assessed as reduction in microbial growth incubated for 48 hrs by broth microdilution method; type: functional
Staphylococcus aureus [25] = assay: Antibacterial activity against methicillin sensitive Staphylococcus aureus NRS107 assessed as reduction in microbial growth by CLSI based broth microdilution method; type: functional
Clostridioides difficile [26] = assay: Selectivity ratio of MBC for antibacterial activity against Clostridioides difficile NR-49278 to MIC for antibacterial activity against Clostridioides difficile NR-49278; type: functional
Clostridioides difficile [27] = assay: Antibacterial activity against Clostridioides difficile NR-49286 assessed as reduction in microbial growth incubated for 48 hrs by broth microdilution method; type: functional
Clostridioides difficile [28] = assay: Antibacterial activity against Clostridioides difficile NR-49285 assessed as reduction in microbial growth incubated for 48 hrs by broth microdilution method; type: functional
Clostridioides difficile [29] = assay: Antibacterial activity against Clostridioides difficile ATCC 43255 assessed as reduction in microbial growth incubated for 48 hrs by broth microdilution method; type: functional
Lactobacillus gasseri = assay: Antibacterial activity against Lactobacillus gasseri HM 407 assessed as reduction in microbial growth incubated for 48 hrs by broth microdilution method; type: functional
Clostridioides difficile [30] = assay: Selectivity ratio of MBC for antibacterial activity against Clostridioides difficile NR-32895 to MIC for antibacterial activity against Clostridioides difficile NR-32895; type: functional
Clostridioides difficile [31] = assay: Selectivity ratio of MBC for antibacterial activity against Clostridioides difficile NR-32904 to MIC for antibacterial activity against Clostridioides difficile NR-32904; type: functional
Clostridioides difficile [32] = assay: Antibacterial activity against Clostridioides difficile NR-49294 assessed as reduction in microbial growth incubated for 48 hrs by broth microdilution method; type: functional
Clostridioides difficile [33] = assay: Antibacterial activity against Clostridioides difficile NR-49279 assessed as reduction in microbial growth incubated for 48 hrs by broth microdilution method; type: functional
Enterococcus faecalis = assay: Antibacterial activity against Enterococcus faecalis ATCC 51299 assessed as reduction in microbial growth by CLSI based broth microdilution method; type: functional
Clostridioides difficile [34] = assay: Antibacterial activity against Clostridioides difficile NR-13436 assessed as reduction in microbial growth incubated for 48 hrs by broth microdilution method; type: functional
Clostridioides difficile [35] = assay: Selectivity ratio of MBC for antibacterial activity against Clostridioides difficile ATCC BAA1870 to MIC for antibacterial activity against Clostridioides difficile ATCC BAA1870; type: functional
Clostridioides difficile [36] = assay: Antibacterial activity against Clostridioides difficile NR-32889 assessed as reduction in microbial growth incubated for 48 hrs by broth microdilution method; type: functional
Clostridioides difficile [37] = assay: Bactericidal activity against Clostridioides difficile ATCC 43255 assessed as reduction in microbial growth by broth microdilution method; type: functional

## O=C(Nc1ncc([N+](=O)[O-])s1)C1CN(c2ccc(Cl)cc2)N(c2ccc(Cl)cc2)C1=O (configuration not stated)
Bifidobacterium breve [1]
  MIC: > 64 µg/mL
Bacteroides fragilis [2]
  MIC: 8 µg/mL
Bifidobacterium longum
  MIC: 32 µg/mL
Clostridioides difficile [3]
  MBC: 1 µg/mL
Clostridioides difficile [4]
  MBC: 0.5 µg/mL
Bifidobacterium breve [5]
  MIC: > 64 µg/mL
Lactobacillus crispatus
  MIC: > 64 µg/mL
Staphylococcus aureus [6]
  MIC: 32 µg/mL
Clostridioides difficile [7]
  MIC: 0.25 µg/mL
Clostridioides difficile [8]
  MBC: 0.5 µg/mL
[9]
  IC50: 10.2 µM
Bacteroides fragilis [10]
  MIC: 8 µg/mL
[11]
  MIC: > 64 µg/mL
Clostridioides difficile [12]
  Ratio: 1
[13]
  inhibition: 70.2%
Clostridioides difficile [14]
  MIC: 0.5 µg/mL
Clostridioides difficile [15]
  MIC: 0.5 µg/mL
Clostridioides difficile [16]
  MIC: 0.5 µg/mL
[17]
  Stability: Stable
Clostridioides difficile [18]
  MIC: 0.5 µg/mL
Clostridioides difficile [19]
  MBC: 1 µg/mL
Clostridioides difficile [20]
  MIC: 0.5 µg/mL
Clostridioides difficile [21]
  MIC: 0.5 µg/mL
Staphylococcus aureus [22]
  MIC: 10 µM
Escherichia coli
  MIC: > 40 µM
Bacteroides fragilis [23]
  MIC: 4 µg/mL
Clostridioides difficile [24]
  MIC: 1 µg/mL
Staphylococcus aureus [25]
  MIC: 64 µg/mL
Clostridioides difficile [26]
  Ratio: 1
Clostridioides difficile [27]
  MIC: 0.5 µg/mL
Clostridioides difficile [28]
  MIC: 1 µg/mL
Clostridioides difficile [29]
  MIC: 0.25 µg/mL
Lactobacillus gasseri
  MIC: > 64 µg/mL
Clostridioides difficile [30]
  Ratio: 1
Clostridioides difficile [31]
  Ratio: 1
Clostridioides difficile [32]
  MIC: 0.5 µg/mL
Clostridioides difficile [33]
  MIC: 0.5 µg/mL
Enterococcus faecalis
  MIC: > 64 µg/mL
Clostridioides difficile [34]
  MIC: 1 µg/mL
Clostridioides difficile [35]
  Ratio: 1
Clostridioides difficile [36]
  MIC: 0.25 µg/mL
Clostridioides difficile [37]
  MBC: 0.5 µg/mL
